Results taken from ChEMBL document CHEMBL3880437, “Modulators of the prostacyclin (PGI2) receptor useful for the treatment of disorders related thereto” (2014).
The source made the active and inactive calls. The calls are words filed in the database; no cut-off is given here.

Legend:
[1] = Stability of the compound in Imwitor 742 assessed as observable API assay loss after 4 weeks in glass vial at 50 degC; type: physicochemical; conditions: 672 h
[2] = test system: Platelet; experiment: Inhibition of ADP-induced platelet aggregation in human platelet rich plasma pre-incubated for 1 min before ADP addition and measured 3 mins post ADP addition by aggregometry; type: functional
[3] = Stability of the compound in TPGS 1000 assessed as observable API assay loss after 4 weeks in glass vial at 50 degC; type: physicochemical; conditions: 672 h
[4] = Stability of the compound in TPGS 1000 assessed as observable compound degradation after 4 weeks in glass vial at 50 degC; type: physicochemical; conditions: 672 h
[5] = Stability of the compound in Cremophor RH40 assessed as observable compound degradation after 4 weeks in glass vial at 50 degC; type: physicochemical; conditions: 672 h
[6] = Stability of the compound in Cremophor RH40 assessed as observable API assay loss after 4 weeks in glass vial at 50 degC; type: physicochemical; conditions: 672 h
[7] = Stability of the compound in Imwitor 742 assessed as observable compound degradation after 4 weeks in glass vial at 50 degC; type: physicochemical; conditions: 672 h
[8] = Solubility of the compound in corn oil; type: physicochemical
[9] = Solubility of the compound in Imwitor 742; type: physicochemical
[10] = Solubility of the compound in PEG400; type: physicochemical
[11] = Solubility of the compound in Safflower oil; type: physicochemical
[12] = Solubility of the compound in TPGS 1000; type: physicochemical
[13] = Solubility of the compound in Gelucire 44/14; type: physicochemical
[14] = Solubility of the compound in PEG6000; type: physicochemical
[15] = Solubility of the compound in Cremophor RH40; type: physicochemical
[16] = Solubility of the compound in Gelucire 50/13; type: physicochemical
[17] = Solubility of the compound in Labrasol; type: physicochemical
[18] = Solubility of the compound in Lauroglycol 90; type: physicochemical
[19] = Terminal phase half life in Sprague-Dawley rat assessed as 2-(((1r,4r)-4-(((4-Chlorophenyl)(phenyl)carbamoy-loxy)methyl)cyclohexyl)methoxy)acetic acid level at 1.25 mg/kg, po after 0.1 to 21 hrs by LC/MS/MS method; type: ADME, organism-based; conditions: in vivo
[20] = Drug level in bile-duct cannulated male Sprague-Dawley rat treated with sodium 2-(((1r,4r)-4-(((4- Chlorophenyl)(phenyl)carbamoyloxy)methyl)cyclo- hexyl)methoxy)acetate assessed as compound formation at 2 mg/kg, iv; type: ADME, organism-based; conditions: in vivo
[21] = Drug level in bile-duct cannulated male Sprague-Dawley rat treated with sodium 2-(((1r,4r)-4-(((4- Chlorophenyl)(phenyl)carbamoyloxy)methyl)cyclo- hexyl)methoxy)acetate assessed as compound formation in bile at 2 mg/kg, iv; type: ADME, organism-based; conditions: in vivo
[22] = Terminal phase half life in Sprague-Dawley rat at 1.25 mg/kg, po after 0.1 to 21 hrs by LC/MS/MS method; type: ADME, organism-based; conditions: in vivo, read-out: beta t1/2 (converted)
[23] = test system: Rattus norvegicus; experiment: Tmax in Sprague-Dawley rat assessed as 2-(((1r,4r)-4-(((4-Chlorophenyl)(phenyl)carbamoy-loxy)methyl)cyclohexyl)methoxy)acetic acid level at 10 mg/kg, po by LC/MS/MS method; type: ADME, organism-based; conditions: in vivo
[24] = test system: Rattus norvegicus; experiment: AUC(last) in Sprague-Dawley rat assessed as 2-(((1r,4r)-4-(((4-Chlorophenyl)(phenyl)carbamoy-loxy)methyl)cyclohexyl)methoxy)acetic acid level at 1.25 mg/kg, po after 0.1 to 21 hrs by LC/MS/MS method; type: ADME, organism-based; set-up: dose 1.25 mg/kg, route oral, time 0 - last; conditions: in vivo
[25] = test system: Rattus norvegicus; experiment: Tmax in Sprague-Dawley rat assessed as 2-(((1r,4r)-4-(((4-Chlorophenyl)(phenyl)carbamoy-loxy)methyl)cyclohexyl)methoxy)acetic acid level at 1.25 mg/kg, po by LC/MS/MS method; type: ADME, organism-based; conditions: in vivo
[26] = Drug level in bile-duct cannulated male Sprague-Dawley rat treated with sodium 2-(((1r,4r)-4-(((4- Chlorophenyl)(phenyl)carbamoyloxy)methyl)cyclo-hexyl)methoxy)acetate assessed as compound formation in urine at 2 mg/kg, iv; type: ADME, organism-based; conditions: in vivo
[27] = test system: Rattus norvegicus; experiment: Cmax in Sprague-Dawley rat assessed as 2-(((1r,4r)-4-(((4-Chlorophenyl)(phenyl)carbamoy-loxy)methyl)cyclohexyl)methoxy)acetic acid level at 1.25 mg/kg, po after 2.67 hrs by LC/MS/MS method; type: ADME, organism-based; set-up: dose 1.25 mg/kg, route oral; conditions: in vivo
[28] = test system: Rattus norvegicus; experiment: Inhibition of right ventricle hypertrophic response to monocrotaline-induced pulmonary arterial hypertension assessed as ratio of right ventricular weight to left ventricle plus septum in Wistar rat at 30 mg/kg administered through oral gavage twice daily for 21 consecutive days starting 24 hrs after monocrotaline challenge; type: functional, organism-based
[29] = target: Prostacyclin receptor (Homo sapiens, UniProt P43119); experiment: Agonist activity at human recombinant prostacyclin receptor expressed in CHO-K1 cells assessed as induction of cAMP accumulation incubated for 1 hr by HTRF assay; type: functional, cell-based
Chain of Prostacyclin receptor (P43119 whole entry): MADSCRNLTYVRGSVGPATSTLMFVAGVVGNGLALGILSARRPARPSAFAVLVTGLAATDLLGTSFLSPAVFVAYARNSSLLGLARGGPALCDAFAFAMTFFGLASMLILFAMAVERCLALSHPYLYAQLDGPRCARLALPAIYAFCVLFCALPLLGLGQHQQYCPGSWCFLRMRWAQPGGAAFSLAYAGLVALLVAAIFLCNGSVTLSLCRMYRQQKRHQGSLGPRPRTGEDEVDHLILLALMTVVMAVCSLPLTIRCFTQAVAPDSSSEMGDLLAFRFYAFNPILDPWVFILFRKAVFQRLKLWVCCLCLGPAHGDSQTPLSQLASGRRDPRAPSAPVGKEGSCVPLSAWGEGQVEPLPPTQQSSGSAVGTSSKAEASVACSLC

Row | SMILES | IC50 [2] | EC50 [29] | further results
1 | O=C(O)COC[C@H]1CC[C@H](COC(=O)N(c2ccccc2)c2ccc(Cl)cc2)CC1 [listing 1 of 2 here] | 10.5 to 1590 nM |  | Stability [1]: Stable; Stability [3]: Stable; Stability [4]: Stable; Stability [5]: Stable; Stability [6]: Stable; Stability [7]: Stable
2 | O=C([O-])COC[C@H]1CC[C@H](COC(=O)N(c2ccccc2)c2ccc(Cl)cc2)CC1.[Na+] |  |  | solubility [8]: < 100 µg/mL; solubility [9]: 16200 µg/mL; solubility [10]: 4850 µg/mL; solubility [11]: < 100 µg/mL; solubility [12]: 2550 µg/mL; solubility [13]: 1610 µg/mL; solubility [14]: < 10000 µg/mL; solubility [15]: 7820 µg/mL; solubility [16]: < 10000 µg/mL; solubility [17]: 12980 µg/mL; solubility [18]: 260 µg/mL
3 | O=C(COC[C@H]1CC[C@H](COC(=O)N(c2ccccc2)c2ccc(Cl)cc2)CC1)NCCS(=O)(=O)O | 10.5 to 1590 nM |  | beta t1/2 [19]: 3.24 h; Drug metabolism [20]: Metabolite_Detected; Drug metabolism [21]: Metabolite_Detected; half-life [22]: 3.51 h; Tmax [23]: 1.5 h; AUClast [24]: 935 ng·h/mL; Tmax [25]: 2.67 h; Drug metabolism [26]: Metabolite_Notdetected; Cmax [27]: 214 ng/mL
4 | O=C(O)COC[C@H]1CC[C@H](COC(=O)N(c2ccccc2)c2cccc(F)c2)CC1 | 10.5 to 1590 nM |  | Activity [28]: Active
5 | O=C(O)COC[C@H]1CC[C@H](COC(=O)N(c2ccccc2)c2ccc(Cl)cc2)CC1 [listing 2 of 2 here] |  |  | Activity [28]: Active
6 | O=C(O)COC[C@H]1CC[C@H](COC(=O)N(c2ccccc2)c2ccc(Cl)cn2)CC1 | 10.5 to 1590 nM | 2.7 to 2650 nM | 
7 | Cc1cccc(N(C(=O)OC[C@H]2CC[C@H](COCC(=O)O)CC2)c2ccc(F)cc2)c1 | 10.5 to 1590 nM | 2.7 to 2650 nM | 
8 | O=C(O)COC[C@H]1CC[C@H](COC(=O)N(c2ccc(F)cc2)c2ccc(OC(F)(F)F)cc2)CC1 | 10.5 to 1590 nM | 2.7 to 2650 nM | 
9 | O=C(O)COC[C@H]1CC[C@H](CNC(=O)N(c2ccccc2)c2cccc(F)c2)CC1 | 10.5 to 1590 nM | 2.7 to 2650 nM | 
10 | Cc1ccc(N(C(=O)OC[C@H]2CC[C@H](COCC(=O)O)CC2)c2cccc(F)c2)cc1 | 10.5 to 1590 nM | 2.7 to 2650 nM | 
11 | O=C(O)COC[C@H]1CC[C@H](COC(=O)N(c2ccc(F)cc2)c2cccc(Cl)c2)CC1 | 10.5 to 1590 nM | 2.7 to 2650 nM | 
12 | O=C(O)COC[C@H]1CC[C@H](COC(=O)N(c2cccc(F)c2)c2ccc(Cl)c(F)c2)CC1 | 10.5 to 1590 nM | 2.7 to 2650 nM | 
13 | O=C(O)COC[C@H]1CC[C@H](COC(=O)N(c2ccccc2)c2ccc(C(F)(F)F)cn2)CC1 | 10.5 to 1590 nM | 2.7 to 2650 nM | 
14 | O=C(O)COC[C@H]1CC[C@H](COC(=O)N(c2ccc(F)cc2)c2cccc(F)c2)CC1 | 10.5 to 1590 nM | 2.7 to 2650 nM | 
15 | Cc1cnc(N(C(=O)OC[C@H]2CC[C@H](COCC(=O)O)CC2)c2ccccc2)s1 | 10.5 to 1590 nM | 2.7 to 2650 nM | 
16 | O=C(O)COC[C@H]1CC[C@H](CNC(=O)NC(c2ccccc2)c2ccccc2)CC1 | 10.5 to 1590 nM | 2.7 to 2650 nM | 
17 | O=C(O)COC[C@H]1CC[C@H](COC(=O)N(c2ccccc2)c2ccnc(F)c2)CC1 | 10.5 to 1590 nM | 2.7 to 2650 nM | 

Row | SMILES | IC50 [2] | EC50 [29] | further results
18 | O=C(O)COC[C@H]1CC[C@H](COC(=O)N(c2ccccc2)c2ccc(Cl)c(F)c2)CC1 | 10.5 to 1590 nM | 2.7 to 2650 nM | 
19 | CN(C[C@H]1CC[C@H](COCC(=O)O)CC1)C(=O)N(c1ccccc1)c1ccccc1 | 10.5 to 1590 nM | 2.7 to 2650 nM | 
20 | O=C(O)COC[C@H]1CC[C@H](COC(=O)N(c2ccc(O)cc2)c2ccc(Cl)cc2)CC1 | 10.5 to 1590 nM | 2.7 to 2650 nM | 
21 | Cc1ccc(N(C(=O)OC[C@H]2CC[C@@H](COCC(=O)O)CC2)c2ccccc2)cc1 | 10.5 to 1590 nM | 2.7 to 2650 nM | 
22 | O=C(O)COC[C@H]1CC[C@H](CNC(=O)N(c2ccccc2)c2ccccc2F)CC1 | 10.5 to 1590 nM | 2.7 to 2650 nM | 
23 | O=C(O)COC[C@H]1CC[C@H](COC(=O)N(c2ccccc2)c2cc(F)cc(Cl)c2)CC1 | 10.5 to 1590 nM | 2.7 to 2650 nM | 
24 | COc1ccc(N(C(=O)NC[C@H]2CC[C@H](COCC(=O)O)CC2)c2ccccc2)cc1 | 10.5 to 1590 nM | 2.7 to 2650 nM | 
25 | O=C(O)COC[C@H]1CC[C@H](COC(=O)N(c2ccccc2)c2ccccc2)CC1 | 10.5 to 1590 nM | 2.7 to 2650 nM | 
26 | O=C(O)COC[C@H]1CC[C@H](CNC(=O)N(c2ccccc2)c2ccc(F)cc2)CC1 | 10.5 to 1590 nM | 2.7 to 2650 nM | 
27 | O=C(O)COC[C@H]1CC[C@H](COC(=O)N(c2ccccc2)c2cc(F)cc(F)c2)CC1 | 10.5 to 1590 nM | 2.7 to 2650 nM | 
28 | O=C(O)COC[C@H]1CC[C@H](COC(=O)N(c2ccccc2)c2cncc(F)c2)CC1 | 10.5 to 1590 nM | 2.7 to 2650 nM | 
29 | O=C(O)COC[C@H]1CC[C@H](COC(=O)N(c2cccnc2)c2cccc(F)c2)CC1 | 10.5 to 1590 nM | 2.7 to 2650 nM | 
30 | COc1cccc(N(C(=O)OC[C@H]2CC[C@@H](COCC(=O)O)CC2)c2ccccc2)c1 | 10.5 to 1590 nM | 2.7 to 2650 nM | 
31 | O=C(O)COC[C@H]1CC[C@H](COC(=O)N(c2ccc(F)nc2)c2cccc(F)c2)CC1 | 10.5 to 1590 nM | 2.7 to 2650 nM | 
32 | Cc1cccc(N(C(=O)NC[C@H]2CC[C@H](COCC(=O)O)CC2)c2cccc(C)c2)c1 | 10.5 to 1590 nM | 2.7 to 2650 nM | 
33 | O=C(O)COC[C@H]1CC[C@H](COC(=O)N(c2ccccc2)c2cccc(F)c2F)CC1 | 10.5 to 1590 nM | 2.7 to 2650 nM | 
34 | O=C(O)COC[C@H]1CC[C@H](COC(=O)N(c2ccc(F)cc2)c2cccnc2)CC1 | 10.5 to 1590 nM | 2.7 to 2650 nM | 
